Experimental data taken from patent US20160361311A1, “LIGANDS THAT TARGET HEPATITIS C VIRUS E2 PROTEIN” (AMERICAN UNIVERSITY OF CAIRO, priority 2014, published 2016).
pIC50: −log10 of the molar value.

Columns and labels:
E2 = E2 (Hepatitis C virus genotype 1a, UniProt P27958); assay: Binding of CD81 ligand 73735 to E2 (method not given); parameters: species or system HCV
HCVcc = HCVcc infection of Huh-7 cells (Gaussia luciferase); format: cell-based, HCV; conditions: Hepatitis C virus, Huh-7, 30 h, read-out: IC50 HCVcc
Description: The cell culture-produced HCV particles (HCVcc) used in this study were based on the JFH1 strain [36] and were prepared as described previously. They were engineered to express the A4 epitope, titer-enhancing mutations and Gaussia luciferase.
(§1) To identify ligands that inhibit HCV infection, Huh-7 cells were seeded in 96-well plates and treated the day after with six different concentrations of each ligand diluted in DMSO in duplicate using a Zephyr automated liquid handling workstation (Caliper BioSciences, Hopkinton, Mass.). The final concentration of DMSO (1%) was adjusted to be the same for all ligand concentrations. Cells treated with DMSO were used as negative controls. Cells treated with different concentrations of anti-CD81 (JS-81 from BD Pharmingen, San Jose, Calif.) 1 hour before infection, were also used as positive controls. The third day, RD114pp, HCVpp or HCVcc were inoculated and incubated for 30 hours at 37° C. Firefly and Gaussia luciferase assays were performed as indicated by the manufacturer (Promega, San Luis Obispo, Calif.).
(§2) The remaining ligands were next tested against pseudotyped retroviral particles harboring genotype-2a HCV envelope proteins (HCVpp 2a), cell culture produced HCV particles (HCVcc) or RD114pp. As a positive control, an anti-CD81 antibody was used in parallel.

RD114pp = RD114pp infection of Huh-7 cells (luciferase); format: cell-based, feline endogenous virus RD114; conditions: Feline endogenous virus RD114, Huh-7, 30 h, read-out: IC50 RD114pp
Description: (§3) Pseudotyped retroviral particles harboring HCV envelope proteins (HCVpp) from different genotypes were produced as described previously. A plasmid encoding the feline endogenous virus RD114 glycoprotein [35] was used for the production of RD114pp. Both HCVpp and RD114pp expressed Firefly luciferase.
as §1
Pseudotyped retroviral particles harboring the envelope protein of an endogenous feline retrovirus (RD114pp) were first used to determine the specificity and the safety of molecules.

HCVpp 2a = HCVpp 2a infection of Huh-7 cells, 96-well (luciferase); format: cell-based, HCV; conditions: Hepatitis C virus, Huh-7, 30 h, read-out: IC50 HCVpp
Description: as §3, §1, §2

recombinant E2 protein = molecular target: T1, recombinant E2 protein (Hepatitis C virus genotype 1b, UniProt Q9WMX2); assay: Surface plasmon resonance (Biacore T100) binding to recombinant E2 immobilized on CM5 chip; conditions: for Binding (RU): 200 μM ligand in PBS, 3 min association; for Dissociation 1 (RU): response remaining 10 sec after rinsing with buffer; for Dissociation 2 (RU): response remaining 50 sec after rinsing with buffer
T1 construct: encoding amino acids 384-656 of the Con1 envelope protein 2 ectodomain (eE2); made in house; host or cells: HEK293T cells (lentiviral, secreted)
T1 sequence (Q9WMX2 384-656): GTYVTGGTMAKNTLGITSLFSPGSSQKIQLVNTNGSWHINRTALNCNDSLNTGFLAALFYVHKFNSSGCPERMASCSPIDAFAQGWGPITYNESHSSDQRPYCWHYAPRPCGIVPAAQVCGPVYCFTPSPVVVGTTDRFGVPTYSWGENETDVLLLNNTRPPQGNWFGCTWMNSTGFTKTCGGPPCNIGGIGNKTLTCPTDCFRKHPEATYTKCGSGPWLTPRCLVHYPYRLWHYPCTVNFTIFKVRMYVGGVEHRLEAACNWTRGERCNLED
From the text: A construct containing the sequence encoding amino acids 384-656 of the Con1 envelope protein 2 ectodomain (eE2), a genoptype 1 E2 sequence, was cloned into a lentiviral expression vector with a carboxy-terminal Protein A tag separated by a PreScission Protease cleavage consensus sequence. eE2-ProtA was stably expressed in HEK293T cells using lentiviral infection. The protein was secreted into the media and supernatants were purified using IgG Sepharose (GE Healthcare, Piscataway, N.J.). eE2-ProtA was eluted with 100 mM sodium citrate and 20 mM KCl at pH 3 directly into tubes containing 1M Tris pH 9 for immediate neutralization. PreScission Protease was added to the eluted sample at a ratio of 1:50 (enzyme:eE2), and the digest was then dialyzed into 20 mM HEPES pH 7.5, 250 mM NaCl, 5% glycerol. eE2 was separated from the cleaved tag and the PreScission Protease by ion exchange chromatography.
The set of 34 of the ligands predicted by AutoDock to bind to E2 were tested experimentally to determine if they bind to recombinant E2 protein immobilized on a chip using surface Plasmon resonance. The SPR analyses were performed using a Biacore T100 workstation (GE Healthcare, NJ, USA) and Prot-A-tagged HCV E2 protein. 1 μM ProtA-HCV E2 was diluted into 10 mM sodium acetate buffer pH 5 and immobilized for 15 min at a flow speed of 5 μl/min onto a CM5 sensor chip using amine coupling (EDC-NHS). Approximately 10,000 response units (RU) of protein were immobilized on the chip. His-CD81-LEL (Bioclone-CA/USA) binding to HCV E2 was tested prior to injecting the ligands to confirm the E2 protein was functional and would bind CD81-LEL. In a typical experiment with CD81, […] of his-CD81 in 114 μl PBS was injected into channel 2 and 106.4 RUs of CD81 bound to the E2 on the chip. This was followed by testing the binding of the 34 virtual screening hits where the ligands were prepared as 200 μM solutions in PBS and they were introduced to the protein using a pre-programmed 3 min association and 1 min dissociation interval. The response was measured at two time points during dissociation, 10 and 50 seconds, to obtain information on the rate of ligand dissociation from E2. Twenty-three of the ligands predicted by AutoDock to bind to E2 were observed by SPR to bind to the recombinant protein (Table 2). The measured responses for the ligands that bound varied from 54 to 276 RUs. Data was also obtained on the rate of ligand dissociation by measuring the amount of ligand remaining bound at two time points, dissociation 1 (10 seconds) and dissociation 2 (50 seconds), during the rinsing of the chip with buffer (FIG. 8). The majority of the ligands dissociated quickly, as one might expect for small molecules that bind to the surface of a protein.

Sequence of E2 (P27958 384-746): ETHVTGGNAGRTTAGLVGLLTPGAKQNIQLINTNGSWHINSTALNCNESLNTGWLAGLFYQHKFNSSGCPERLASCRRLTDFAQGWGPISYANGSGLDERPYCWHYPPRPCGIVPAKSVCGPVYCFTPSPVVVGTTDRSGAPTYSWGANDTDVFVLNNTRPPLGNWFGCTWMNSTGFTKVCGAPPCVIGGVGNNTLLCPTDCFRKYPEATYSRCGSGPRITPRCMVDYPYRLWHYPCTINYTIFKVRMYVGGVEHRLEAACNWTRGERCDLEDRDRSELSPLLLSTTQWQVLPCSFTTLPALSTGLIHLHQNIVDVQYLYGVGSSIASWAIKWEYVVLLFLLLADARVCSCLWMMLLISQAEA

Structure (SMILES)	binding to E2 (in words) (E2)	pIC50 (HCVcc)	pIC50 (RD114pp)	pIC50 (HCVpp 2a)	Binding (RU) (recombinant E2 protein)	rate of ligand dissociation (in words) (recombinant E2 protein; compared to the other ligands)	Dissociation 1 (RU) (recombinant E2 protein)	Dissociation 2 (RU) (recombinant E2 protein)
COc1cc(-c2ccc(Nc3ccccc3C(=O)O)c(OC)c2)ccc1Nc1ccccc1C(=O)O [Ligand 73735]	determined to bind to E2							
Nc1nc(N)nc(-c2ccccc2-c2nc(N)nc(N)n2)n1 [Ligand 4429, 6-[2-(4,6-diamino-1,3,5-triazin-2-yl)phenyl]-1,3,5-triazine-2,4-diamine]		< 5.00	< 5.00	< 5.00	155.3	slower off rates	28.9	14.2
NC1=Nc2ccccc2C(=O)[N+]1=C(N)N [Ligand 403379, 2-amino-3-(diaminomethylidene) quinazolin-3-ium-4-one]		< 5.00	< 5.00	< 5.00	58		2.8	1.1
O=C(Nc1cccc([N+](=O)[O-])c1)c1cccc(C(=O)Nc2cccc([N+](=O)[O-])c2)c1 [Ligand 204232]		< 5.00	< 5.00	< 5.00	63.4		2.5	0.4
